Measurements as given in patent publication US20230121157A1, “ANTI-AGING CARE COMPOSITION COMPRISING PERFUMES” (BASF SE, priority 2020, published 2023).

Experiment: Free radicals generated inside a formulation containing perfume after UV irradiation (ESR, spin marker PCA)
Format: physicochemical
Settings: 0.1% (w/w) perfume in formulation, diluted 1:10 in water, 0.01 mM PCA; UVB 23,5 W/m^2, UVA 180 W/m^2
Protocol: To measure the free radicals generation inside a formulation after UV irradiation, the concentration of a photostable spin marker added to the tested samples is followed by Electron Spin Resonance (ESR) spectroscopy before and after UV irradiation of the tested samples. The photostable spin marker will promptly react with the free radical generated in the formulation after UV irradiation.
0.1% (w/w) of the perfume to be tested is incorporated into the formulation, the formulation is then diluted in distillated water (1:10 dilution factor) and a water solution of the spin marker PCA (2,2,5,5,-tetramethyl pyrrolidine N-oxyl) is added to obtain a spin marker concentration of 0.01 mM. […] The sample is inserted in a capillary quartz tube to perform ESR measurement before and after 20 minutes of UV irradiation. The irradiances as integrated value over the spectral ranges of the solar simulator can exemplarily be E=23,5W/m^2 for UVB and 180W/m^2 for UVA.
The percentage of UV-induced free radicals inside the formulation containing the perfume to be tested serves as indicator to the sensitivity of said perfume.
The Electron Spin Resonance (ESR) measurements were performed with a high sensitive X-band bench top Electron Spin Resonance Spectrometer MiniScope MS300, supplied from Magnettech GmbH Berlin, Germany.
To measure the free radicals generation inside the formulation after UV irradiation, the concentration of a photostable spin marker added to the tested samples was followed by
Electron Spin Resonance (ESR) spectroscopy before and after UV irradiation of the tested samples. The photostable spin marker promptly reacted with the free radical generated in the formulation after UV irradiation.
0.1% (w/w) of the perfume to be tested (compare to Table 1) was incorporated into the formulation. The formulation was then diluted in distillated water (1:10 dilution factor) and a water solution of the spin marker PCA (2,2,5,5,-tetramethyl pyrrolidine N-oxyl) was added to obtain a spin marker concentration of 0.01 mM. Knowing the concentration of the spin trap PCA within the formulation, the amount of reduced PCA was calculated. The sample was inserted in a capillary quartz tube to perform ESR measurement before and after 20 minutes of UV irradiation. The irradiances as integrated value over the spectral ranges of the solar simulator were E=23,5 W/m^2 for UVB and 180 W/m^2 for UVA.

| % free radicals after 20 min UV irradiation [%] | Structure (SMILES) |
| --- | --- |
| 6.6 | CC(C)=CCCC(C)CCO (stereo not shown) [Citronellol, 3,7-dimethyloct-6-en-1-ol] |
| 3.7 | CC(CC=O)CCCC(C)(C)O (stereo not shown) [Hydroxycitronellal] |
| 11.5 | O=c1ccc2ccccc2o1 [Coumarin, 2H-chromen-2-one] |
| 16.5 | CC(C)=CCCC(C)=CC=O [Citral, 3,7-dimethylocta-2,6-dienal] |
| 17.5 | O=C(OCc1ccccc1)c1ccccc1O [Benzyl Salicylate, benzyl 2-hydroxybenzoate] |
| 4.4 | OCc1ccccc1 [Benzyl Alcohol] |
| 85.9 | COc1cc(C=O)ccc1O [Vanillin, 4-hydroxy-3-methoxybenzaldehyde] |
